Results: PubChem BioAssay (NCI)
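Five compound concentrations were applied to cells in 96-well plates for 48 hours; endpoints were derived by simple linear interpolation of the resulting dose-response curve. GI50 is the concentration that inhibits growth by half. TGI: concentration producing complete growth inhibition.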

Experiments:
Assay in all cases: growth of human tumour cells (NCI), 48 h
[1] = test system: LOX IMVI melanoma
[2] = test system: SK-MEL-28 melanoma
[3] = test system: SF-539 CNS
[4] = test system: MOLT-4 leukemia
[5] = test system: NCI/ADR-RES ovarian
[6] = test system: HOP-92 NSCLC
[7] = test system: HCC-2998 colon
[8] = test system: MCF7 breast
[9] = test system: NCI-H23 lung
[10] = test system: SR leukemia
[11] = test system: UACC-257 melanoma
[12] = test system: OVCAR-8 ovarian
[13] = test system: SNB-75 CNS
[14] = test system: EKVX NSCLC
[15] = test system: MDA-MB-435
[16] = test system: SF-295 CNS
[17] = test system: HCT-15 colon
[18] = test system: NCI-H226 lung
[19] = test system: SN12C renal
[20] = test system: HL-60(TB) leukemia
[21] = test system: OVCAR-3 ovarian
[22] = test system: SK-OV-3 ovarian
[23] = test system: OVCAR-4 ovarian
[24] = test system: 786-0 renal
[25] = test system: M14 melanoma
[26] = test system: UACC-62 melanoma
[27] = test system: IGROV1 ovarian
[28] = test system: SK-MEL-5 melanoma
[29] = test system: RXF 393 renal
[30] = test system: RPMI-8226 leukemia
[31] = test system: SNB-19 CNS
[32] = test system: COLO 205 colon
[33] = test system: T-47D breast
[34] = test system: OVCAR-5 ovarian
[35] = test system: NCI-H522 lung
[36] = test system: PC-3 prostate
[37] = test system: HOP-62 NSCLC
[38] = test system: MDA-MB-468 breast
[39] = test system: HS 578T breast
[40] = test system: TK-10 renal
[41] = test system: CAKI-1 renal
[42] = test system: BT-549 breast
[43] = test system: DU-145 prostate
[44] = test system: A549 NSCLC
[45] = test system: UO-31 renal
[46] = test system: KM12 colon
[47] = test system: CCRF-CEM leukemia
[48] = test system: SF-268 CNS
[49] = test system: SW-620 colon
[50] = test system: NCI-H460 lung
[51] = test system: A498 renal
[52] = test system: SK-MEL-2 melanoma
[53] = test system: MALME-3M melanoma
[54] = test system: U251 CNS
[55] = test system: HCT-116 colon
[56] = test system: MDA-MB-231 breast
[57] = test system: ACHN renal
[58] = test system: HT29 colon
[59] = test system: K-562 leukemia

For `O=C(Nc1ccc(OCc2ccc(Cl)cc2)cc1)Nc1ccc(Cl)c(C(F)(F)F)c1`, the GI50 [1] was 1.85 µM, the TGI [1] was 3.57 µM and the GI50 [2] was 2.84 µM. For the same compound, the TGI [2] was 10.4 µM, the GI50 [3] was 2.4 µM and the TGI [3] was 5.98 µM. For the same compound, the GI50 [4] was 3.02 µM, the TGI [4] was 27.2 µM and the GI50 [5] was 1.74 µM. For the same compound, the TGI [5] was 5.41 µM, the GI50 [6] was 1.96 µM and the TGI [6] was 5.37 µM. The GI50 [7] was 2.89 µM, the TGI [7] was 11.7 µM and the GI50 [8] was 1.95 µM. The TGI [8] was 5.96 µM, the GI50 [9] was 1.39 µM and the TGI [9] was 3.83 µM. The GI50 [10] was 2.95 µM, the TGI [10] was 15.7 µM and the GI50 [11] was 2.33 µM. The TGI [11] was 5.96 µM, the GI50 [12] was 2.32 µM and the TGI [12] was 7.19 µM. The GI50 [13] was 1.42 µM, the TGI [13] was 5.45 µM and the GI50 [14] was 2.18 µM. For the same compound, the TGI [14] was 5.95 µM, the GI50 [15] was 2.59 µM and the TGI [15] was 8.51 µM. It also gave a GI50 [16] of 1.42 µM, a TGI [16] of 3.7 µM and a GI50 [17] of 1.87 µM. It also gave a TGI [17] of 10.6 µM, a GI50 [18] of 2 µM and a TGI [18] of 5.27 µM. It also gave a GI50 [19] of 2.03 µM, a TGI [19] of 6.46 µM and a GI50 [20] of 2.33 µM. For the same compound, the TGI [20] was 7.07 µM, the GI50 [21] was 1.98 µM and the TGI [21] was 8.35 µM. It also gave a GI50 [22] of 3.42 µM, a TGI [22] of 11.6 µM and a GI50 [23] of 2.37 µM. The TGI [23] was 9.36 µM, the GI50 [24] was 4.09 µM and the TGI [24] was 13.3 µM. It also gave a GI50 [25] of 2.8 µM, a TGI [25] of 12.1 µM and a GI50 [26] of 2.4 µM. It also gave a TGI [26] of 10.6 µM, a GI50 [27] of 3.25 µM and a TGI [27] of 13.5 µM. For the same compound, the GI50 [28] was 1.75 µM, the TGI [28] was 3.35 µM and the GI50 [29] was 2.89 µM. It also gave a TGI [29] of 6.17 µM, a GI50 [30] of 1.55 µM and a TGI [30] of 13.5 µM. The GI50 [31] was 2.45 µM, the TGI [31] was 7.99 µM and the GI50 [32] was 1.97 µM. For the same compound, the TGI [32] was 4.23 µM, the GI50 [33] was 2.06 µM and the TGI [33] was 10.1 µM. The GI50 [34] was 3.01 µM, the TGI [34] was 17.4 µM and the GI50 [35] was 1.82 µM. It also gave a TGI [35] of 5.28 µM, a GI50 [36] of 1.19 µM and a TGI [36] of 13.8 µM. The GI50 [37] was 2.64 µM, the TGI [37] was 8.18 µM and the GI50 [38] was 1.54 µM. It also gave a TGI [38] of 4.41 µM, a GI50 [39] of 2.27 µM and a TGI [39] of 6.7 µM. It also gave a GI50 [40] of 2.74 µM, a TGI [40] of 9.69 µM and a GI50 [41] of 2.31 µM. For the same compound, the TGI [41] was 6.83 µM, the GI50 [42] was 2.37 µM and the TGI [42] was 5.63 µM. The GI50 [43] was 2.83 µM, the TGI [43] was 10.7 µM and the GI50 [44] was 2.19 µM. It also gave a TGI [44] of 8.07 µM, a GI50 [45] of 1.82 µM and a TGI [45] of 6.73 µM. It also gave a GI50 [46] of 2.62 µM, a TGI [46] of 9.32 µM and a GI50 [47] of 3.05 µM. For the same compound, the TGI [47] was 79.6 µM, the GI50 [48] was 3.18 µM and the TGI [48] was 13.2 µM. For the same compound, the GI50 [49] was 2.56 µM, the TGI [49] was 10.3 µM and the GI50 [50] was 1.47 µM. The TGI [50] was 3.99 µM, the GI50 [51] was 1.96 µM and the TGI [51] was 5.21 µM. For the same compound, the GI50 [52] was 2 µM, the TGI [52] was 4.6 µM and the GI50 [53] was 1.75 µM. The TGI [53] was 4.51 µM, the GI50 [54] was 1.92 µM and the TGI [54] was 4.55 µM. For the same compound, the GI50 [55] was 1.87 µM, the TGI [55] was 7.71 µM and the GI50 [56] was 2.45 µM. The TGI [56] was 6.88 µM, the GI50 [57] was 2.37 µM and the TGI [57] was 7.62 µM. For the same compound, the GI50 [58] was 2.78 µM, the TGI [58] was 10.2 µM and the GI50 [59] was 1.72 µM. The TGI [59] was 65.7 µM.
